Reference: PubChem BioAssay AID1963827 (Molecular Pharmacology Branch, DTP, NCI, 2024)

Tested on: 994946-033-R-J1-PDC complex spheroid viability
Assay: Anticancer human tumor 994946-033-R-J1-PDC patient-derived melanoma cell line growth inhibition [POLQ]
Details: for IC50: curve of first compound; for viability, T/C: stronger effect = lower value
Procedure, shortened: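 Patient-derived tumour cells were co-cultured with HUVEC and mesenchymal stem cells as multicellular spheroids at 37 °C. They were treated with POLQ inhibitors (novobiocin, ART-558, RP6685) alone or combined with other agents. Top concentrations were at or near clinical Cmax (otherwise 10 microM; SN-38 at 1 microM), decreasing in half-log steps.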

[1] = second compound 0.0316 µM, first compound 0.0316 µM
[2] = second compound 0.0316 µM, first compound 0.1 µM
[3] = second compound 0.0316 µM, first compound 0.316 µM
[4] = second compound 0.0316 µM, first compound 1 µM
[5] = second compound 0.0316 µM, first compound 3.16 µM
[6] = second compound 0.0316 µM, first compound 10 µM
[7] = second compound 0.1 µM, first compound 0.0316 µM
[8] = second compound 0.1 µM, first compound 0.1 µM
[9] = second compound 0.1 µM, first compound 0.316 µM
[10] = second compound 0.1 µM, first compound 1 µM
[11] = second compound 0.1 µM, first compound 3.16 µM
[12] = second compound 0.1 µM, first compound 10 µM
[13] = second compound 0.316 µM, first compound 0.0316 µM
[14] = second compound 0.316 µM, first compound 0.1 µM
[15] = second compound 0.316 µM, first compound 0.316 µM
[16] = second compound 0.316 µM, first compound 1 µM
[17] = second compound 0.316 µM, first compound 3.16 µM
[18] = second compound 0.316 µM, first compound 10 µM
[19] = second compound 1 µM, first compound 0.0316 µM
[20] = second compound 1 µM, first compound 0.1 µM
[21] = second compound 1 µM, first compound 0.316 µM
[22] = second compound 1 µM, first compound 1 µM
[23] = second compound 1 µM, first compound 3.16 µM
[24] = second compound 1 µM, first compound 10 µM
[25] = second compound 3.16 µM, first compound 0.0316 µM
[26] = second compound 3.16 µM, first compound 0.1 µM
[27] = second compound 3.16 µM, first compound 0.316 µM
[28] = second compound 3.16 µM, first compound 1 µM
[29] = second compound 3.16 µM, first compound 3.16 µM
[30] = second compound 3.16 µM, first compound 10 µM
[31] = second compound 10 µM, first compound 0.0316 µM
[32] = second compound 10 µM, first compound 0.1 µM
[33] = second compound 10 µM, first compound 0.316 µM
[34] = second compound 10 µM, first compound 1 µM
[35] = second compound 10 µM, first compound 3.16 µM
[36] = second compound 10 µM, first compound 10 µM
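Also: spheroids exposed to drugs for 7 days.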
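For viability, T/C in this document: 100% = DMSO vehicle treated spheroids.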

CC1COCCN1c1cc(C2(S(C)(=N)=O)CC2)nc(-c2ccnc3[nH]ccc23)n1 (stereo not given) + Cc1cccc(N(C)C(=O)C2C(O)CCN2c2nc(C)cc(C(F)(F)F)c2C#N)c1
IC50 (second compound 0.0316 µM): > 10 µM | IC50 (second compound 0.1 µM): 4.26 µM | IC50 (second compound 0.316 µM): 4.2 µM | IC50 (second compound 1 µM): 1.87 µM | IC50 (second compound 3.16 µM): > 10 µM | IC50 (second compound 10 µM): 6.24 µM | viability, T/C [1]: 103% | viability, T/C [2]: 111% | viability, T/C [3]: 112% | viability, T/C [4]: 61.2% | viability, T/C [5]: 59.8% | viability, T/C [6]: 46.8% | viability, T/C [7]: 71.6% | viability, T/C [8]: 113% | viability, T/C [9]: 109% | viability, T/C [10]: 82.2% | viability, T/C [11]: 58.8% | viability, T/C [12]: 28.4% | viability, T/C [13]: 110% | viability, T/C [14]: 117% | viability, T/C [15]: 104% | viability, T/C [16]: 78.8% | viability, T/C [17]: 48.8% | viability, T/C [18]: 48.4% | viability, T/C [19]: 101% | viability, T/C [20]: 92% | viability, T/C [21]: 76.2% | viability, T/C [22]: 64.6% | viability, T/C [23]: 36.8% | viability, T/C [24]: 33.7% | viability, T/C [25]: 94.5% | viability, T/C [26]: 110% | viability, T/C [27]: 97.5% | viability, T/C [28]: 53.5% | viability, T/C [29]: 53.2% | viability, T/C [30]: 52.8% | viability, T/C [31]: 96.5% | viability, T/C [32]: 103% | viability, T/C [33]: 92.2% | viability, T/C [34]: 75.1% | viability, T/C [35]: 64.3% | viability, T/C [36]: 41.3%

COc1cc2cc(C(=O)CCC(=O)O)sc2cc1OC + Nc1ccc(C#CCN(C(=O)Cc2ncc(C(F)(F)F)cc2C(F)(F)F)c2ccc(F)cc2)nn1
IC50 (second compound 0.0316 µM): > 10 µM | IC50 (second compound 0.1 µM): > 10 µM | IC50 (second compound 0.316 µM): > 10 µM | IC50 (second compound 1 µM): > 10 µM | IC50 (second compound 3.16 µM): > 10 µM | IC50 (second compound 10 µM): > 10 µM | viability, T/C [1]: 81.7% | viability, T/C [2]: 99.5% | viability, T/C [3]: 92.4% | viability, T/C [4]: 83.2% | viability, T/C [5]: 86.7% | viability, T/C [6]: 67.9% | viability, T/C [7]: 126% | viability, T/C [8]: 101% | viability, T/C [9]: 102% | viability, T/C [10]: 92.1% | viability, T/C [11]: 87.2% | viability, T/C [12]: 87.1% | viability, T/C [13]: 111% | viability, T/C [14]: 86% | viability, T/C [15]: 87.6% | viability, T/C [16]: 109% | viability, T/C [17]: 72.3% | viability, T/C [18]: 96% | viability, T/C [19]: 93.5% | viability, T/C [20]: 98% | viability, T/C [21]: 80.1% | viability, T/C [22]: 79.4% | viability, T/C [23]: 88.9% | viability, T/C [24]: 95.8% | viability, T/C [25]: 116% | viability, T/C [26]: 75.5% | viability, T/C [27]: 111% | viability, T/C [28]: 96.3% | viability, T/C [29]: 94.9% | viability, T/C [30]: 66.8% | viability, T/C [31]: 80.5% | viability, T/C [32]: 81.9% | viability, T/C [33]: 90.7% | viability, T/C [34]: 91.8% | viability, T/C [35]: 115% | viability, T/C [36]: 78.8%

COc1cccc2c1C(=O)c1c(O)c3c(c(O)c1C2=O)CC(O)(C(=O)CO)CC3OC1CC(N)C(O)C(C)O1 (stereo not given) + Cc1cccc(N(C)C(=O)C2C(O)CCN2c2nc(C)cc(C(F)(F)F)c2C#N)c1
IC50 (second compound 0.0316 µM): < 0.0316 µM | IC50 (second compound 0.1 µM): < 0.0316 µM | IC50 (second compound 0.316 µM): < 0.0316 µM | IC50 (second compound 1 µM): < 0.0316 µM | IC50 (second compound 3.16 µM): < 0.0316 µM | IC50 (second compound 10 µM): < 0.0316 µM | viability, T/C [1]: 31.8% | viability, T/C [2]: 10.5% | viability, T/C [3]: 2.24% | viability, T/C [4]: 1.98% | viability, T/C [5]: 2.99% | viability, T/C [6]: 0.53% | viability, T/C [7]: 26.8% | viability, T/C [8]: 6.95% | viability, T/C [9]: 3.98% | viability, T/C [10]: 0.54% | viability, T/C [11]: 1.3% | viability, T/C [12]: 1.07% | viability, T/C [13]: 22.5% | viability, T/C [14]: 7.12% | viability, T/C [15]: 3.03% | viability, T/C [16]: 2.42% | viability, T/C [17]: 1.56% | viability, T/C [18]: 0.77% | viability, T/C [19]: 47.9% | viability, T/C [20]: 7.31% | viability, T/C [21]: 1.73% | viability, T/C [22]: 2.31% | viability, T/C [23]: 1.01% | viability, T/C [24]: 0.51% | viability, T/C [25]: 22.8% | viability, T/C [26]: 7.88% | viability, T/C [27]: 1.7% | viability, T/C [28]: 1.41% | viability, T/C [29]: 1.39% | viability, T/C [30]: 0.69% | viability, T/C [31]: 33.1% | viability, T/C [32]: 8.28% | viability, T/C [33]: 2.08% | viability, T/C [34]: 1.32% | viability, T/C [35]: 0.67% | viability, T/C [36]: 0.65%

CCc1cc2c(N3CCc4c(cc(Cn5ccnc5)cc4-c4cn(C)nc4C(F)(F)F)C3=O)ccnc2c(OC)n1 + Cc1cccc(N(C)C(=O)C2C(O)CCN2c2nc(C)cc(C(F)(F)F)c2C#N)c1
IC50 (second compound 0.0316 µM): > 10 µM | IC50 (second compound 0.1 µM): > 10 µM | IC50 (second compound 0.316 µM): > 10 µM | IC50 (second compound 1 µM): > 10 µM | IC50 (second compound 3.16 µM): > 10 µM | IC50 (second compound 10 µM): > 10 µM | viability, T/C [1]: 107% | viability, T/C [2]: 86.7% | viability, T/C [3]: 68.3% | viability, T/C [4]: 78.4% | viability, T/C [5]: 69.1% | viability, T/C [6]: 67.4% | viability, T/C [7]: 95.3% | viability, T/C [8]: 85.2% | viability, T/C [9]: 78.6% | viability, T/C [10]: 78.1% | viability, T/C [11]: 66.3% | viability, T/C [12]: 66.9% | viability, T/C [13]: 102% | viability, T/C [14]: 94.2% | viability, T/C [15]: 86.1% | viability, T/C [16]: 93.9% | viability, T/C [17]: 63.3% | viability, T/C [18]: 61.6% | viability, T/C [19]: 77.7% | viability, T/C [20]: 78.8% | viability, T/C [21]: 93.5% | viability, T/C [22]: 80.1% | viability, T/C [23]: 84.1% | viability, T/C [24]: 55.2% | viability, T/C [25]: 92.4% | viability, T/C [26]: 76.8% | viability, T/C [27]: 65% | viability, T/C [28]: 63% | viability, T/C [29]: 85.9% | viability, T/C [30]: 53.1% | viability, T/C [31]: 81.5% | viability, T/C [32]: 65.4% | viability, T/C [33]: 73.6% | viability, T/C [34]: 57.8% | viability, T/C [35]: 71.7% | viability, T/C [36]: 65.9%

COc1cccc2c1C(=O)c1c(O)c3c(c(O)c1C2=O)CC(O)(C(=O)CO)CC3OC1CC(N)C(O)C(C)O1 (stereo not given) + COC1C(OC(N)=O)C(O)C(Oc2ccc3c(O)c(NC(=O)c4ccc(O)c(CC=C(C)C)c4)c(=O)oc3c2C)OC1(C)C
IC50 (second compound 0.0316 µM): < 0.0316 µM | IC50 (second compound 0.1 µM): < 0.0316 µM | IC50 (second compound 0.316 µM): < 0.0316 µM | IC50 (second compound 1 µM): < 0.0316 µM | IC50 (second compound 3.16 µM): < 0.0316 µM | IC50 (second compound 10 µM): < 0.0316 µM | viability, T/C [1]: 30% | viability, T/C [2]: 9.63% | viability, T/C [3]: 3% | viability, T/C [4]: 2.19% | viability, T/C [5]: 0.88% | viability, T/C [6]: 1.18% | viability, T/C [7]: 38.2% | viability, T/C [8]: 11.2% | viability, T/C [9]: 1.88% | viability, T/C [10]: 1.88% | viability, T/C [11]: 1.36% | viability, T/C [12]: 0.62% | viability, T/C [13]: 29.7% | viability, T/C [14]: 8.65% | viability, T/C [15]: 5.33% | viability, T/C [16]: 1.37% | viability, T/C [17]: 0.61% | viability, T/C [18]: 1.78% | viability, T/C [19]: 38.5% | viability, T/C [20]: 21.4% | viability, T/C [21]: 2.96% | viability, T/C [22]: 0.39% | viability, T/C [23]: 0.88% | viability, T/C [24]: 0.7% | viability, T/C [25]: 29.7% | viability, T/C [26]: 7.94% | viability, T/C [27]: 3.1% | viability, T/C [28]: 0.41% | viability, T/C [29]: 0.77% | viability, T/C [30]: 0.92% | viability, T/C [31]: 29.2% | viability, T/C [32]: 9.79% | viability, T/C [33]: 2.2% | viability, T/C [34]: 0.59% | viability, T/C [35]: 1.28% | viability, T/C [36]: 0.88%
